For experiment [1], the system named is GES-1 human gastric mucosal epithelial cells. Description: cells. The experiment is classed as cell-based. The following applies: GES1, 24 h, read-out: Cell viability (%). The method, then:
Long-term alcoholics were prone to gastric mucosal damage due to long-term alcohol damage.
A blank control group (without ethanol) and a model group (with ethanol but without the salt or glycyrrhetinic acid in the examples) were set.
The cells were cultured in a complete RPMI 1640 medium for 6 h.
Then, the cell viability was detected. […] Table 2 Cell viability of ethanol-induced damage models of gastric mucosal epithelial cells

Experiment [2] deals with SH-SY5Y human neuroblastoma cells. Description: Parkinson's disease cell model (6-OHDA), cell viability. The following applies: 24 h, read-out: Cell viability (%).
Experimental: A blank control group (without 6-OHDA) and a model group (with 6-OHDA but without the salt of this example or selegiline) were set.
SH-SY5Y human neuroblastoma cells were uniformly inoculated into a 96-well plate, about 5,000 cells per well. The cells were cultured in a complete DMEM/F12 medium for 6 h. After the cells were completely adhered to the wall, all the media were removed, 100 µL of serum-free DMEM/F12 medium, i.e., a cell culture solution, containing 150 µmol/L of 6-OHDA (a serum-free DMEM/F12 medium without 6-OHDA was added to the blank group), was added to each well, and the cells were incubated and cultured for 24 h.
Then, all the media were removed again, 100 µL of each of serum-free DMEM/ F12 media, i.e., cell culture solutions, containing 0.025 g/mL, 0.05 g/mL, 0.1 g/mL, 0.2 g/mL, 0.4 g/mL and 0.8 g/mL of compound of experimental or control groups (a serum-free DMEM/ F12 medium without compound of experimental or control groups was added to the blank group and a model group) were added to each well according to the groups, and the cells were cultured in a cell culture solution for 24 h.

Viability data for two molecules are collected here from patent EP4624454A1, “NON-COVALENT DIMER CATION, AND SALT THEREOF, PREPARATION METHOD THEREFOR AND USE THEREOF” (Suzhou Protonation Chain Biotechnology Co., Ltd, priority 2022, dated 2024).

SMILES strings stand for the structures.

As usually defined, the viability is the share of living cells, or the viability signal relative to a control. With `CC1(C)[C@@H](O)CC[C@]2(C)[C@H]3C(=O)C=C4[C@@H]5C[C@@](C)(C(=O)O)CC[C@]5(C)CC[C@@]4(C)[C@]3(C)CC[C@@H]12` [Glycyrrhetinic acid, glycyrrhetinic acid], in experiment [1], the viability at 25 µg/mL came to 59.4%, the viability at 50 µg/mL stood at 61.8%, the viability at 100 µg/mL was 64.3% and the viability at 200 µg/mL stood at 65.2%. Also, in experiment [1], the viability at 400 µg/mL worked out at 68.9% and the viability at 800 µg/mL is 71.9%.
With `C#CCN(C)[C@H](C)Cc1ccccc1` [Selegiline, selegiline], in experiment [2], the viability at 25 µg/mL was 33.4%, the viability at 50 µg/mL amounted to 37.5%, the viability at 100 µg/mL was determined as 43.3% and the viability at 200 µg/mL came to 49.9%. In experiment [2], the viability at 400 µg/mL was 58.5% and the viability at 800 µg/mL turned out to be 69.8%.
